One assay deals with T1, ALDH1A1 enzyme (Homo sapiens, UniProt P00352).
T1 sequence (P00352 1-501): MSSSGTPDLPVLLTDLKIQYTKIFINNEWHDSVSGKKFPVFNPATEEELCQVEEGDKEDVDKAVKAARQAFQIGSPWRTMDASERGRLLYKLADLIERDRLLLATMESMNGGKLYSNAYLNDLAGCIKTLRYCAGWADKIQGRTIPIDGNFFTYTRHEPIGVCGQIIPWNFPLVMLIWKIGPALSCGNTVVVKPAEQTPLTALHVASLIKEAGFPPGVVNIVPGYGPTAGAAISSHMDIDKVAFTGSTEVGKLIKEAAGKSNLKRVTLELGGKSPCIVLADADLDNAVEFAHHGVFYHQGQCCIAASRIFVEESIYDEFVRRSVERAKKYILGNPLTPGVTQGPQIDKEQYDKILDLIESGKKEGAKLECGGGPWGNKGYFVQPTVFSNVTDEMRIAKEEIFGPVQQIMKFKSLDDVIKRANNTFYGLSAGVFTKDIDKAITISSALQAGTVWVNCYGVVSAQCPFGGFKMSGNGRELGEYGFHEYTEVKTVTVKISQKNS
Nature of the assay: ALDH1A1 enzymatic assay (in vitro). The conditions noted are these: ALDH1A1 enzyme 20 nM, NAD+ 1 mM, propionaldehyde 80 μM; read-out: ALDH1A1 IC50. It counts as biochemical. On the procedure: Example 358. ALDH1A1 Enzymatic Assay (In Vitro Assay)
3 μL of ALDH1A1 enzyme (final concentration 20 nM) or assay buffer (100 mM HEPES pH 7.5 with 0.01% Tween 20) were dispensed into a 1,536-well solid-bottom black plate (Greiner Bio One, Monroe, N.C.) followed by pin-tool transfer (23 nL) of candidate inhibitors (final concentration range 968 pM to 57.2 μM) and control (Bay 11-7085, final concentration range 1.31 nM to 2.86 μM). Samples were incubated (RT, protected from light) for 15 minutes followed by a 1 μL substrate addition of NAD^+ and Propionaldehyde (final concentrations of 1 mM and 80 μM, respectively). Plates were centrifuged at 1,000 rpm for 15 seconds, then read in kinetic mode on a ViewLux High-throughput CCD imager (Perkin-Elmer) equipped with standard UV fluorescence optics (340 nm excitation, 450 nm emission) for 10 minutes. The change in fluorescence intensity over the 10-minute reaction period was normalized against no-inhibitor and no-enzyme controls and the resulting percent inhibition data were fitted for biological activity.

The next assay deals with MIA PaCa-2 cells. The assay is described as follows: MIA PaCa2 cell-based assay (1,536-well high-content imaging ALDEFLUOR assay). More on the design: species or system human. The conditions noted are these: Homo sapiens, 0.5 h, ALDEFLUOR BAAA substrate 500 nM, 30 minutes. The method in brief:
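MIA PaCa-2 cells (1,000/well), plated overnight, given BAAA substrate (500 nM) plus Hoechst 33342 (0.5 nM), then compound (16-point, 1.4 nM–47.8 μM final; 0.5% DMSO). After 30 min at 37° C, ALDH activity imaged by high-content microscopy as BAA-retaining (FITC) cells versus Hoechst-stained nuclei.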

Our source for the IC50 values is patent US11795177B2, “Substituted quinoline analogs as aldehyde dehydrogenase 1A1 (ALDH1A1) inhibitors” (THE UNITED STATES OF AMERICA, AS REPRESENTED BY THE …, priority 2017, dated 2023).

Structures can show the parent of a compound that is named as a salt.

One may read the IC50 as the concentration needed to halve the response being measured. In the case of `Cn1ncc2c(N3CCC(C)(C#N)CC3)c(C(=O)N3CCN(C(=O)C4CC4)CC3)cnc21` [Example 205, 1-(5-(4-(cyclopropanecarbonyl)piperazine-1-carbonyl)-1-methyl-1H-pyrazolo[3,4-b]pyridin-4-yl)-4-methylpiperidine-4-carbonitrile], the half-maximal inhibitory concentration (IC50) is less than 500 nM at ALDH1A1 enzyme and 1000 to 10000 nM in the assay with MIA PaCa-2 cells.

In the case of `CC(=O)N1CCN(C(=O)c2cnc3ccccc3c2N2CCC(C)(C#N)CC2)CC1` [Example 96, 1-(3-(4-acetylpiperazine-1-carbonyl)quinolin-4-yl)-4-methylpiperidine-4-carbonitrile], the IC50 was 1000 to 10000 nM on ALDH1A1 enzyme and greater than 10000 nM with MIA PaCa-2 cells.

Regarding `CC1(C#N)CCN(c2c(C(=O)N3CCN(S(=O)(=O)N4CCCC4)CC3)cnc3cc(F)c(F)cc23)CC1` [Example 178, 1-(6,7-difluoro-3-(4-(pyrrolidin-1-ylsulfonyl)piperazine-1-carbonyl)quinolin-4-yl)-4-methylpiperidine-4-carbonitrile], the IC50 is 1000 to 10000 nM on ALDH1A1 enzyme and greater than 10000 nM in the assay with MIA PaCa-2 cells.

`CNC(=O)Cn1cc(NC(=O)c2cnc3ccc(F)cc3c2-c2ccc(C3(C#N)CC3)cc2)cn1` [Cpd. 355, 4-(4-(1-cyanocyclopropyl)phenyl)-6-fluoro-N-(1-(2-(methylamino)-2-oxoethyl)-1H-pyrazol-4-yl)quinoline-3-carboxamide]: the IC50 at ALDH1A1 enzyme is less than 500 nM; in the assay on MIA PaCa-2 cells, 1000 to 10000 nM.

Consider `COc1ccc2ncc(C(=O)N3CCC(c4ccccc4)CC3)c(N3CCC4(CC3)OCCO4)c2c1` [Example 10, (6-methoxy-4-(1,4-dioxa-8-azaspiro[4.5]decan-8-yl)quinolin-3-yl)(4-phenylpiperidin-1-yl)methanone, TFA], for which the figures for the IC50 on ALDH1A1 enzyme and in the assay on MIA PaCa-2 cells were less than 500 nM and greater than 10000 nM, respectively.

Take `CS(=O)(=O)C1CCN(C(=O)c2cnc3cc(F)c(F)cc3c2N2CCC3(CC2)OCCO3)CC1` [Example 187, (6,7-difluoro-4-(1,4-dioxa-8-azaspiro[4.5]decan-8-yl)quinolin-3-yl)(4-(methylsulfonyl)piperidin-1-yl)methanone]: the IC50 on ALDH1A1 enzyme was less than 500 nM; with MIA PaCa-2 cells, 1000 to 10000 nM.

With `N#CC1(c2ccccc2)CCN(c2c(C(=O)Nc3cnn(CCO)c3)cnc3ccc(F)cc23)CC1` [Cpd. 345, 4-(4-cyano-4-phenylpiperidin-1-yl)-6-fluoro-N-(1-(2-hydroxyethyl)-1H-pyrazol-4-yl)quinoline-3-carboxamide], the IC50 at ALDH1A1 enzyme and with MIA PaCa-2 cells was less than 500 nM throughout.

In the case of `O=C(C1CC1)C1CCN(C(=O)c2cnc3cc(F)c(F)cc3c2N2CCC3(CC2)OCCO3)CC1` [Example 193, (4-(cyclopropanecarbonyl)piperidin-1-yl)(6,7-difluoro-4-(1,4-dioxa-8-azaspiro[4.5]decan-8-yl)quinolin-3-yl)methanone], the IC50 on ALDH1A1 enzyme is less than 500 nM; with MIA PaCa-2 cells, 1000 to 10000 nM.

Turning to `N#CC1(c2ccc(-c3c(C(=O)N[C@H]4CC[C@H](O)CC4)cnc4ccc(F)cc34)cc2)CC1` [Cpd. 338, 4-(4-(1-cyanocyclopropyl)phenyl)-6-fluoro-N-((1R,4R)-4-hydroxycyclohexyl)quinoline-3-carboxamide], the IC50 at ALDH1A1 enzyme and in the assay on MIA PaCa-2 cells was less than 500 nM throughout.

With `COc1ccc2ncc(C(=O)N3CCN(C4CCCC4)CC3)c(N3CCC4(CC3)OCCO4)c2c1` [Example 9, (4-cyclopentylpiperazin-1-yl)(6-methoxy-4-(1,4-dioxa-8-azaspiro[4.5]decan-8-yl)quinolin-3-yl)methanone, TFA], the IC50 on ALDH1A1 enzyme was 1000 to 10000 nM; with MIA PaCa-2 cells it was greater than 10000 nM.

`N#CC1(c2ccccc2)CCN(c2c(C(=O)N3CC4(C3)CS(=O)(=O)C4)cnc3ccc(F)cc23)CC1` [Cpd. 328, 1-(3-(2,2-dioxido-2-thia-6-azaspiro[3.3]heptane-6-carbonyl)-6-fluoroquinolin-4-yl)-4-phenylpiperidine-4-carbonitrile]: the half-maximal inhibitory concentration (IC50) at ALDH1A1 enzyme and with MIA PaCa-2 cells was less than 500 nM each time.

Consider `CCNC(=O)N1CCN(C(=O)c2cnc3cc(OC)c(OC)cc3c2N2CCC3(CC2)OCCO3)CC1` [Example 140, 4-(6,7-dimethoxy-4-(1,4-dioxa-8-azaspiro[4.5]decan-8-yl)quinoline-3-carbonyl)-N-ethylpiperazine-1-carboxamide], for which the values for the IC50 on ALDH1A1 enzyme and in the assay on MIA PaCa-2 cells were less than 500 nM and greater than 10000 nM, respectively.

As for `CCC(=O)N1CCN(C(=O)c2cnc3ccc(Cl)cc3c2N2CCC(C)(C#N)CC2)CC1` [Example 118, 1-(6-chloro-3-(4-propionylpiperazine-1-carbonyl)quinolin-4-yl)-4-methylpiperidine-4-carbonitrile], the IC50 at ALDH1A1 enzyme is less than 500 nM; in the assay on MIA PaCa-2 cells, 1000 to 10000 nM.

Regarding `CN(C)C(=O)Cn1cc(NC(=O)c2cnc3ccc(F)cc3c2N2CCC(C#N)(c3ccccc3)CC2)cn1` [Cpd. 339, 4-(4-cyano-4-phenylpiperidin-1-yl)-N-(1-(2-(dimethylamino)-2-oxoethyl)-1H-pyrazol-4-yl)-6-fluoroquinoline-3-carboxamide], the IC50 on ALDH1A1 enzyme and in the assay on MIA PaCa-2 cells was less than 500 nM in each case.

`CS(=O)(=O)C1CCN(C(=O)c2cnc3ccsc3c2N2CCC(C#N)(c3ccccc3)CC2)CC1` [Example 293, 1-(6-(4-(methylsulfonyl)piperidine-1-carbonyl)thieno[3,2-b]pyridin-7-yl)-4-phenylpiperidine-4-carbonitrile]: the IC50 at ALDH1A1 enzyme and in the assay on MIA PaCa-2 cells was less than 500 nM in each case.

On to `CC1(C#N)CCN(c2c(C(=O)N3CCN(S(=O)(=O)C4CC4)CC3)cnc3ccc(Cl)cc23)CC1` [Example 120, 1-(6-chloro-3-(4-(cyclopropylsulfonyl)piperazine-1-carbonyl)quinolin-4-yl)-4-methylpiperidine-4-carbonitrile], for which the IC50 is less than 500 nM on ALDH1A1 enzyme and 1000 to 10000 nM with MIA PaCa-2 cells.

Turning to `C[C@H]1CN(C(=O)C2CC2)CCN1C(=O)c1cnc2ccc(F)cc2c1N1CCC(C)(C#N)CC1` [Example 238, (s)-1-(3-(4-(cyclopropanecarbonyl)-2-methylpiperazine-1-carbonyl)-6-fluoroquinolin-4-yl)-4-methylpiperidine-4-carbonitrile], the IC50 on ALDH1A1 enzyme is 1000 to 10000 nM; in the assay on MIA PaCa-2 cells it was greater than 10000 nM.

With `CC(C)C(=O)N1CCN(C(=O)c2cnc3ccccc3c2N2CCC(C)(C#N)CC2)CC1` [Example 95, 1-(3-(4-isobutyrylpiperazine-1-carbonyl)quinolin-4-yl)-4-methylpiperidine-4-carbonitrile], the IC50 is less than 500 nM on ALDH1A1 enzyme and greater than 10000 nM with MIA PaCa-2 cells.

Consider `CCN(CC)C(=O)N1CCN(C(=O)c2cnc3cc(F)c(F)cc3c2N2CCC(C)(C#N)CC2)CC1` [Example 174, 4-(4-(4-cyano-4-methylpiperidin-1-yl)-6,7-difluoroquinoline-3-carbonyl)-N,N-diethylpiperazine-1-carboxamide], for which the IC50 on ALDH1A1 enzyme lay in the range of 500 to 1000 nM; in the assay with MIA PaCa-2 cells, 1000 to 10000 nM.

For `CCOC(=O)N1CCN(C(=O)c2cnc3ccc(F)cc3c2N2CCC3(CC2)OCCO3)CC1` [Example 54, Ethyl 4-(6-fluoro-4-(1,4-dioxa-8-azaspiro[4.5]decan-8-yl)quinoline-3-carbonyl)piperazine-1-carboxylate], the figures for the IC50 on ALDH1A1 enzyme and with MIA PaCa-2 cells were less than 500 nM and greater than 10000 nM, respectively.

For `CS(=O)(=O)N1CCN(C(=O)c2cnc3ccc(F)cc3c2N2CCC3(CCCC3=O)CC2)CC1` [Example 251, 8-(6-fluoro-3-(4-(methylsulfonyl)piperazine-1-carbonyl)quinolin-4-yl)-8-azaspiro[4.5]decan-1-one], the IC50 at ALDH1A1 enzyme was less than 500 nM; with MIA PaCa-2 cells it was 500 to 1000 nM.

As for `CS(=O)(=O)N1CCN(C(=O)c2ccc3ccccc3c2-c2ccc(C3(C#N)CC3)cc2)CC1` [Example 300, 1-(4-(2-(4-(methylsulfonyl)piperazine-1-carbonyl)naphthalen-1-yl)phenyl)cyclopropanecarbonitrile], the IC50 at ALDH1A1 enzyme and with MIA PaCa-2 cells was less than 500 nM in each case.

For the molecule `O=C(c1cnc2cc(F)c(F)cc2c1N1CCC2(CC1)OCCO2)N1CCN(S(=O)(=O)N2CCCC2)CC1` [Example 173, (6,7-difluoro-4-(1,4-dioxa-8-azaspiro[4.5]decan-8-yl)quinolin-3-yl)(4-(pyrrolidin-1-ylsulfonyl)piperazin-1-yl)methanone], the results for the IC50 on ALDH1A1 enzyme and in the assay on MIA PaCa-2 cells were less than 500 nM and greater than 10000 nM, respectively.
